Results published in patent US4460595A, “Using urazole analogs of prostaglandins for bronchodilation” (Beecham Group Limited, priority 1976, dated 1984).

System: 5-hydroxytryptamineor histamine induced bronchoconstriction
Test: Inhibition of 5-hydroxytryptamine or histamine induced bronchoconstriction (Konzett-Rossler preparation)
Format: in vivo
Settings: Cavia porcellus, iv, anaesthetised artificially respired guinea-pig
Description: The compounds are examined for their ability to inhibit 5-hydroxytryptamineor histamine induced bronchoconstriction in the anaesthetised artificially respired guinea-pig (Konzett-Rossler preparation).
The ED50 values (μg/kg, i.v.) for inhibition of bronchoconstriction for a variety of the triazolidine-3,5-diones are given in Table 7.

Row | SMILES | ED50
1 | COC(=O)CCCCCCn1c(=O)n(C)c(=O)n1CCC(C)(O)Cc1ccccc1 (stereo not shown) [Compound 31] | 37 µg/kg
2 | CCCCCCC(C)(O)CCn1c(=O)n(C)c(=O)n1CCCCCCC(=O)OC (stereo not shown) [Compound 29, 1-(6'-methoxycarbonyl-n-hexyl-)-2-(3"-hydroxy-3"-methyl-n-nonyl)-4-methyl-1,2,4-triazolidine-3,5-dione] | 2.6 µg/kg
3 | CCCCC(C)C(C)(O)CCn1c(=O)n(C)c(=O)n1CCCCCCC(=O)OC (stereo not shown) [Compound 32] | 0.74 µg/kg
4 | COC(=O)CCCCCCn1c(=O)n(C)c(=O)n1CCC(C)(O)C1CCCCC1 (stereo not shown) [Compound 33] | 2.6 µg/kg
5 | CCCCCC(O)CCn1c(=O)n(C)c(=O)n1CCCCCCC(=O)O (stereo not shown) [Compound 24, 1-(6'-Carboxy-n-hexyl)-2-(3"-hydroxy-n-octyl)-4-methyl-1,2,4-triazolidine-3,5-dione] | 4 µg/kg
6 | CCCCCCC(C)(O)CCn1c(=O)n(C)c(=O)n1CC=CCCCC(=O)OC (stereo not shown) [Compound 43, 1-(6'-methoxycarbonyl-n-hex-2-enyl)-2-(3"-hydroxy-3"-methyl-n-nonyl)-4-methyl-1,2,4-triazolidine-3,5-dione] | 1.9 µg/kg
7 | CCCCCC(O)CCn1c(=O)n(C)c(=O)n1CCCCCCC(=O)OCC (stereo not shown) [Compound 21, 1-(6'-Ethoxycarbonyl-n-hexyl)-2-(3"-hydroxy-n-octyl)-4-methyl-1,2,4-triazolidine-3,5-dione] | 3.4 µg/kg
